Drawing on patent US10758534B2 (Vertex Pharmaceuticals Incorporated, priority 2014, dated 2020), this text covers EC30 for twelve compounds.

The target of the first assay is T1, F508del (Homo sapiens, UniProt P13569, DEL508-508).
T1 construct: expressed in transfected cells
T1 sequence (P13569 with tags, fused parts or gaps DEL508-508): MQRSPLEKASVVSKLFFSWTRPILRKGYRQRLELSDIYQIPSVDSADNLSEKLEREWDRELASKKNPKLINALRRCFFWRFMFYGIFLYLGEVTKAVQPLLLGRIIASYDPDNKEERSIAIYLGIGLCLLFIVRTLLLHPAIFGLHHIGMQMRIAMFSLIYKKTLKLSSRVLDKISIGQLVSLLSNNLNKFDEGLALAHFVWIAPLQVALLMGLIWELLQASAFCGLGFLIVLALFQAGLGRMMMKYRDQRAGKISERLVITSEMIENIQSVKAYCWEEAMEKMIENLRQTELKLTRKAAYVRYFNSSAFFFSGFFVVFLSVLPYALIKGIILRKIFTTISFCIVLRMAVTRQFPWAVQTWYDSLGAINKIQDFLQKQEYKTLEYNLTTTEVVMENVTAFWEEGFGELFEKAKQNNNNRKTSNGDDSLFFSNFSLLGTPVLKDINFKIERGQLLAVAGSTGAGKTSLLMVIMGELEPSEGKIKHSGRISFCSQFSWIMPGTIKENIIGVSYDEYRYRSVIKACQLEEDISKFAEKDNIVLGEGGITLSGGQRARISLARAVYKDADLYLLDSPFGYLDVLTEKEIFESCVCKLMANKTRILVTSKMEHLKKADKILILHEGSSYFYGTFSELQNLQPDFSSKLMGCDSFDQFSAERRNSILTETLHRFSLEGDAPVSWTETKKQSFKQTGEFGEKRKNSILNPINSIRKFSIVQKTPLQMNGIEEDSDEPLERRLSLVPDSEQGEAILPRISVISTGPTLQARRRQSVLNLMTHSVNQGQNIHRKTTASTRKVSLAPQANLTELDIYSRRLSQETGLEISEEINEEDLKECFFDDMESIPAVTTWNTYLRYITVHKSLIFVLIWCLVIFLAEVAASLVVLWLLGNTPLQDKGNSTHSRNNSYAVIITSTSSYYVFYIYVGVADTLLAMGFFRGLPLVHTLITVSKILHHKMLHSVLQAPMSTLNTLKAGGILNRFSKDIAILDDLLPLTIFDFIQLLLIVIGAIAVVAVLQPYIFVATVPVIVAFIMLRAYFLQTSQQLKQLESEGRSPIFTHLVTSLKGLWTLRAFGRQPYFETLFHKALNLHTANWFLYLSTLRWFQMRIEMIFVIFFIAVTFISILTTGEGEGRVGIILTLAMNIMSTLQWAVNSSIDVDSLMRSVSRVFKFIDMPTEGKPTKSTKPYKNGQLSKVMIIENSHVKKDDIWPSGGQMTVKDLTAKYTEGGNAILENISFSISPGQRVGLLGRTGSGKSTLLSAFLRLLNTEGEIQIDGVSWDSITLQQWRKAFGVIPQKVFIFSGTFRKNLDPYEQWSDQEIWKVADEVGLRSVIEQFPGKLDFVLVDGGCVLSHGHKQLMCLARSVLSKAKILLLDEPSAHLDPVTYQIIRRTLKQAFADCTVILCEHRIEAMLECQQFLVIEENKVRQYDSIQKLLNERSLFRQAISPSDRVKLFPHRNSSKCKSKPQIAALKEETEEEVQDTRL
Description: Protocol 2: FRET membrane potential optical assay (VIPR), identification of correction compounds. The format is cell-based. As to conditions: F508del CFTR modulator activity; compounds of Table 1; read-out: EC30. Put shortly:
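Mouse NIH3T3 cells, stable F508del; cpd 16 hrs, 37° C., serum-free; pos ctrl 27° C. 16 hrs. Rinse in Krebs Ringers, dye load, then add 10 μM forskolin + 20 μM genistein with Cl^−-free (gluconate) medium; depolarization by FRET voltage dyes.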
As for `CC1CN(c2ncccc2C(=O)NS(=O)(=O)c2cccc(N(C)CC(=O)OC(C)(C)C)n2)C(C)(C)C1` (stereo not drawn) [Compound 2251, tert-butyl 2-[methyl-[6-[[2-(2,2,4-trimethylpyrrolidin-1-yl)pyridine-3-carbonyl]sulfamoyl]-2-pyridyl]amino]acetate], the EC30 (in general, the concentration needed for an effect of 30%) is below 3000 nM.
Regarding `COc1ccc(CNc2cccc(S(=O)(=O)NC(=O)c3ccc(C(C)(C)C)nc3N3CC(C)CC3(C)C)n2)cc1` (stereo not drawn) [Compound 2712], the EC30 was below 3000 nM.
Same read-out and setting: the same measure for `C[C@@H]1CN(c2nc(C3CC(C)(C)CCC3O)ccc2C(=O)NS(=O)(=O)c2cccnc2N)C(C)(C)C1` (stereo partly drawn) [Compound 2047, N-[(2-amino-3-pyridyl)sulfonyl]-6-(2-hydroxy-5,5-dimethyl-cyclohexyl)-2-[(4S)-2,2,4-trimethylpyrrolidin-1-yl]pyridine-3-carboxamide]: 3000 to 10000 nM; for `CC(C)COc1cc(F)cc(-c2ccc(C(=O)NS(=O)(=O)N[C@@H]3CCCNC3)c(N3C[C@@H](C)CC3(C)C)n2)c1` [Compound 2677, 6-(3-fluoro-5-isobutoxy-phenyl)-N-[[(3R)-3-piperidyl]sulfamoyl]-2-[(4S)-2,2,4-trimethylpyrrolidin-1-yl]pyridine-3-carboxamide]: below 3000 nM; for `CC1CN(c2ncc(-c3ccccc3C#N)cc2C(=O)NS(=O)(=O)c2cccc(N)n2)C(C)(C)C1` (stereo not drawn) [Compound 2584, N-[(6-amino-2-pyridyl)sulfonyl]-5-(2-cyanophenyl)-2-(2,2,4-trimethylpyrrolidin-1-yl)pyridine-3-carboxamide]: 3000 to 10000 nM.
Same read-out and setting: the same measure for `Cc1ccc(Oc2cccc(S(=O)(=O)NC(=O)c3cccnc3N3CC(C)CC3(C)C)n2)cc1` (stereo not drawn) [Compound 2460, N—[[6-(4-methylphenoxy)-2-pyridyl]sulfonyl]-2-(2,2,4-trimethylpyrrolidin-1-yl)pyridine-3-carboxamide]: below 3000 nM; for `Cc1ccc(-c2ccc(C(=O)NS(=O)(=O)c3cccc(N)n3)c(N3C[C@@H](C)CC3(C)C)n2)c(O)c1` [Compound 2043, N-[(6-amino-2-pyridyl)sulfonyl]-6-(2-hydroxy-4-methyl-phenyl)-2-[(4S)-2,2,4-trimethylpyrrolidin-1-yl]pyridine-3-carboxamide]: below 3000 nM.

Still in this assay, the particulars now being: Table 3; compounds of Table 1 as modulators of CFTR activity; protocol not stated.
Consider `C[C@@H]1CC[C@H](C)N1c1nc(-c2ccc(Cl)cc2)ccc1C(=O)NS(=O)(=O)c1cccc(N)n1` [Compound 459, N-[(6-amino-2-pyridyl)sulfonyl]-6-(4-chlorophenyl)-2-[(2S,5R)-2,5-dimethylpyrrolidin-1-yl]pyridine-3-carboxamide], for which the EC30 entry is on record as “+++ (“+++” means <3 uM)”.
As for `Cc1cc(C)c(Oc2nc(C(C)(C)C)ccc2C(=O)NS(=O)(=O)c2cccc(N)n2)c(C#N)c1` [Compound 767, N-[(6-amino-2-pyridyl)sulfonyl]-6-tert-butyl-2-(2-cyano-4,6-dimethyl-phenoxy)pyridine-3-carboxamide], the EC30 entry is on record as “+++ (“+++” means <3 uM)”.
In the case of `CC(C)COc1cc(F)cc(-c2ccc(C(=O)NS(=O)(=O)c3cccc(N)n3)c(OC3CCC(C)CC3)n2)c1` (stereo not drawn) [Compound 438, N-[(6-amino-2-pyridyl)sulfonyl]-6-(3-fluoro-5-isobutoxy-phenyl)-2-(4-methylcyclohexoxy)pyridine-3-carboxamide], the EC30 entry is listed as “+++ (“+++” means <3 uM)”.
Still for that read-out and setting: as for `CC1CN(c2nc(-c3ccc(F)cc3)ccc2C(=O)NS(=O)(=O)c2cccc(N)n2)C(C)(C)C1` (stereo not drawn) [Compound 712, N-[(6-amino-2-pyridyl)sulfonyl]-6-(4-fluorophenyl)-2-(2,2,4-trimethylpyrrolidin-1-yl)pyridine-3-carboxamide], the entry is “+++ (“+++” means <3 uM)”; as for `CC1CCN(c2nc(-c3cc(F)cc(OC(C)C)c3)ccc2C(=O)NS(=O)(=O)c2cccc(N)n2)CC1` [Compound 600, N-[(6-amino-2-pyridyl)sulfonyl]-6-(3-fluoro-5-isopropoxy-phenyl)-2-(4-methyl-1-piperidyl)pyridine-3-carboxamide], “+++ (“+++” means <3 uM)”.
